Test results as given in US12285426B2, “Combination serotonin specific reuptake inhibitor and serotonin 1A receptor partial agonist for reducing L-DOPA-induced dyskinesia” (The Research Foundation for The State University of new York, priority 2018, dated 2025).

Legend:
[1] = system: 6-OHDA-lesioned rats, L-DOPA-induced dyskinesias; experiment: Example 2: LIDs scoring in unilateral 6-OHDA-lesioned rats; format: in vivo, rat; settings: vilazodone 10 mg/kg or escitalopram 12.5 mg/kg + L-DOPA 5 mg/kg, 2 weeks
Experimental: 6-OHDA-induced dopaminergic lesions: Adult male Sprague-Dawley rats were randomly assigned to groups receiving either a 6-OHDA or sham lesion. […] [[…] 2019]. […] Rats were treated for 5 consecutive days/week (Mon-Fri), for 2 weeks. […] All rats were evaluated three times per week for the presence of L-DOPA-induced dyskinesias (LIDs) (Wed-Fri) and once for the stepping test (Tue). […] Scores were given over 1 min epochs and classified as axial, limb, orolingual and locomotive. […] The severity of each LID was scored using a standard scale. Each dyskinetic behavior was given an intensity and frequency score, which were then multiplied. The average sum of the products of each LID was determined in each animal.

[2] = system: 6-OHDA-lesioned rats, forelimb akinesia; experiment: Example 2: stepping test; format: in vivo, rat; settings: 60 minutes post L-DOPA
Experimental: 6-OHDA-induced dopaminergic lesions: Adult male Sprague-Dawley rats were randomly assigned to groups receiving either a 6-OHDA or sham lesion. All rats received desipramine (10 mg/kg i.p.) 30 min prior to surgery to prevent the lesioning of norepinephrine neurons by 6-OHDA. A single injection of 6-OHDA (8 μg of 6-OHDA free base in 4 p of 0.1% ascorbic acid) was delivered into the right medial forebrain bundle (coordinates taken from bregma: −4.3 mm AP, 1.6 mm ML, −8.3 mm DV). The same experimental treatment was performed for the sham-operated rats using vehicle (4 μl of 0.1% ascorbic acid). A standard stepping test was used to evaluate the effectiveness of the 6-OHDA lesion.
Rats were treated for 5 consecutive days/week (Mon-Fri), for 2 weeks. On the second day of each week, stepping tests were performed prior to drug administration, and 60 minutes post L-DOPA treatment.

[3] = system: DRN 5-HT neurons; experiment: Example 3: in vivo single-unit recording of DRN 5-HT neurons; design: species or system rat; settings: 8-OH-DPAT 1 μg/kg i.v.; WAY-100635 100 μg/kg i.v.
Description: Burr holes (˜1 mm in diameter) were drilled in the skull overlying the DRN of non-lesioned rats. Prior to experimentation all animals were anesthetized with urethane (1.5 g/kgi.p.) and placed in a stereotaxic apparatus. Bipolar stimulating/recording electrodes were implanted in the frontal cortex and DRN on the right side using a micromanipulator (coordinates from Bregma: AP: 3.2 mm; ML: 0.8 mm lateral; DV: 4.4 mm ventral (frontal cortex) or AP: 7.8 mm; ML 3.1 mm; DV: 7.5 mm with the manipulator angled 30 degrees toward Bregma) as previously described [Chakroborty 2017].
Electrophysiology: Recording microelectrodes were manufactured from 2.0 mm OD borosilicate glass capillary tubing and filled with sodium chloride (2M) solution. […] Temperature was monitored using a rectal probe and maintained at 37 C.° using a heating pad (VI-20F, Fintronics Inc., Orange, CT). […] Once isolated, recordings consisted of basal (pre-drug), saline vehicle, and drug-treatment-(see below) induced changes in spike activity recorded in a series of 3 min duration epochs.
All compounds and physiological 0.9% saline were prepared daily and administered intravenously (i.v.) through the lateral tail vein to enable rapid examination of potential acute effects of vehicle or drug on DRN neuronal activity. […] DRN 5-HT neuron activity was recorded prior to and immediately following drug administration as described above.

[4] = system: L-DOPA-primed 6-OHDA-lesioned rats; 5-HT1AR; settings: VZD 10 mg/kg, WAY 0.5 mg/kg, LD 6 mg/kg s.c.
[5] = system: L-DOPA-primed 6-OHDA-lesioned rats; 5-HT1BR; experiment: Experiment 3: AIMs with 5-HT1BR antagonist NAS-181; format: in vivo, rat; settings: VZD 10 mg/kg, NAS-181 3.0 mg/kg, LD 6 mg/kg s.c.
Experimental: All 6-OHDA-lesioned rats (n=17) were tested on the FAS prior to treatment regimens to establish baseline motor performance. Three-weeks post-surgery, all rats were primed with L-DOPA (6 mg/kg, s.c.) for 14 days.
Beginning 10 min post-treatment, a trained and blinded observer assigned a severity score (0-4) to each of the ALO AIMs based on 1 min ratings every 10 min for 3 h: 0, not present; 1, present from 1-29 s; 2, present 30-59s; 3, present all 60 s, but interruptible by a cylinder tap; 4, present 60 s and not interruptible by a cylinder tap.

[6] = biological target: T1, 5-HT1A receptor expressed in SF9 cells (Homo sapiens, UniProt P08908); settings: cited from earlier work
T1 construct: expressed in transfected cells; host or cells: SF9 cells
T1 sequence (P08908 1-422): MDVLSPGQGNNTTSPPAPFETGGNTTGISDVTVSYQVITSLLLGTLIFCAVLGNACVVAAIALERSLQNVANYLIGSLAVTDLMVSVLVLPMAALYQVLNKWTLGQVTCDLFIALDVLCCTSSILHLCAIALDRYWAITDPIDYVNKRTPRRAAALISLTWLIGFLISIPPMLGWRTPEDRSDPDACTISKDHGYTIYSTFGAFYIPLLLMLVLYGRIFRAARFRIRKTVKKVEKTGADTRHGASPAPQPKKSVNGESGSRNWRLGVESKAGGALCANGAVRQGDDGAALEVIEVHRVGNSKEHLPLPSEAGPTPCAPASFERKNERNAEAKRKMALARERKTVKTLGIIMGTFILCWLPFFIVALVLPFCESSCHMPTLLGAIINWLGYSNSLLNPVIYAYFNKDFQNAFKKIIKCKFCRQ

[7] = system: striatal c-Fos, PPD, PPE, PPT, 5-HT1AR mRNA; experiment: Experiment 2: real-time RT-PCR of striatal gene expression
[8] = system: striatum and DRN monoamines and metabolites; experiment: Experiment 1: HPLC of striatal and dorsal raphe tissue monoamines; format: in vivo, rat
Experimental: Rats (n=30) were rendered hemi-parkinsonian with unilateral 6-OHDA lesions of the left MFB. Three-weeks post-lesion, animals were divided into 2 equally disabled groups, measured by forepaw adjusting steps (FAS, see below). One group (n=8) began receiving 14 days of daily vehicle (0.9% NaCl+0.1% ascorbic acid) and the other (n=22) received L-DOPA methyl ester (6 mg/kg, s.c.; Sigma)+DL-serine 2-(2,3,4-trihydroxybenzyl) hydrazine hydrochloride (benserazide; 15 mg/kg, s.c.; Sigma), hereafter L-DOPA, dissolved in vehicle at a volume of 1 mL/kg. […] Thereafter, L-DOPA-treated animals with Axial, Limb, and Orolingual (ALO) AIMs (see description below, FIG. 1A)<30 were excluded from the study and the remaining L-DOPA-treated animals were divided into 3 equally dyskinetic groups. […] Daily injections continued over 23 days, with behavior assayed on Days 15, 22, 29, and 36. On Day 37, animals were killed 60 min post-treatment. Left and right dorsal striata and DRN were dissected and flash frozen for HPLC analyses.
High-performance liquid chromatography (HPLC): HPLC, a method for semi-automated catecholamine analysis with coulometric detection, was performed according to prior protocols (Bishop et al., 2009) to determine the tissue levels of monoamines, their metabolites, and monoamine turnover in the striatum and DRN. The limit of detection for DOPAC, DA, 5-hydroxyindoleacetic acid (5-HIAA) and 5-HT was 10^−10 M. Final oxidation current values were plotted on a standard curve from 10^−6 M to 10^−9 M and expressed as pg of monoamine or metabolite per mg of tissue unless otherwise specified.
On the final treatment day, animals were sacrificed 60 min post-LD treatment and left and right striata and dorsal raphe nucleus (DRN) were collected for high performance liquid chromatography (HPLC) analysis. Values (means±standard mean error) are expressed as picograms of monoamine or metabolite per milligram wet tissue weight. Turnover estimates were determined by dividing a subject's metabolite value by its corresponding monoamine.

[9] = system: 6-OHDA-lesioned rats, forelimb akinesia; experiment: Experiment 2: forepaw adjusting steps (FAS); format: in vivo, rat; settings: LD 6 mg/kg alone or with VZD
Description: (§1) Forepaw adjusting steps (FAS): The FAS test is a measure of forelimb akinesia performed according to previous protocols (Bishop et al., 2012; Chang et al., 1999). Data are presented as mean percent intact stepping where the sum of the total steps with the lesioned forepaw was divided by the total steps with the unlesioned forepaw multiplied by 100. Lower percent intact scores indicate greater forelimb akinesia. Prior to baseline, rats received 2 acclimation periods. On-treatment FAS was performed 60 min post-L-DOPA.

[10] = in vivo; cited from earlier work
[11] = system: 6-OHDA-lesioned rats, forelimb akinesia; experiment: Experiment 1: forepaw adjusting steps (FAS); format: in vivo, rat; settings: LD 6 mg/kg alone or with VZD 10/20 mg/kg
Description: as §1, with “Conti et al., 2014). […] Forepaw” for “Forepaw”

[12] = system: lesion-induced motor deficits; experiment: FIG. 23D: % intact stepping; format: in vivo; settings: L-DOPA alone or with AMA 40 mg/kg and/or VZD 2.5 mg/kg
[13] = system: 6-OHDA-lesioned rats, L-DOPA-induced dyskinesia; experiment: Experiment 1: AIMs, established LID in L-DOPA-primed hemi-parkinsonian rats; format: in vivo, rat; settings: LD 6 mg/kg s.c. vs L-DOPA vehicle
[14] = Dorsal Raphe Nucleus, VZD(0)+LD(6) mg/kg s.c.

CN(C)CCC[C@@]1(c2ccc(F)cc2)OCc2cc(C#N)ccc21 [Escitalopram]
LIDs severity [1]: significantly reduced LIDs severity
forelimb akinesia / L-DOPA therapeutic (prokinetic) efficacy [2]: affected L-DOPA therapeutic efficacy

COc1ccccc1N1CCN(CCN(C(=O)C2CCCCC2)c2ccccn2)CC1.O=C(O)/C=C\C(=O)O [WAY100635, N-[2-[4(2-Methoxyphenyl)-1-piperazinyl]ethyl]-N-2-pyridinylcyclohexanecarboxamide maleate salt]
LIDs severity [1]: reverses the beneficial effects of vilazodone on LIDs
spontaneous firing of DRN 5-HT neuron [3]: return to baseline firing
summed ALO AIMs [4]: partially reversed the anti-dyskinetic efficacy of Vilazodone

C1=C(CN2CCOCC2)COc2c1cccc2OC[C@H]1CNCCO1.CS(=O)(=O)O [NAS-181, (R)-(+)-2-(3-morpholinomethyl-2H-chromen-8-yl) oxymethyl-morpholine methane-sulfonate]
ALO AIMs [5]: did not significantly alter AIMs or their reduction by Vilazodone

Br.CCCN(CCC)C1CCc2cccc(O)c2C1 (stereo not drawn) [8-OH-DPAT, 8-hydroxy-2-(dipropylamino) tetralin hydrobromide]
spontaneous firing of DRN 5-HT neuron [3]: suppressed the spontaneous firing of a DRN neuron
increase of [35S]GTPyS binding compared to vehicle [6]: eightfold

N[C@@H](Cc1ccc(O)c(O)c1)C(=O)O [L-DOPA, L-3,4-dihydroxyphenylalanine]
striatal PPE mRNA ([7]; lesioned striata, LD 6 mg/kg, VZD 20 mg/kg, day 23): significantly increased PPE in the lesioned striata
striatal PPD mRNA ([7]; lesioned striata, LD 6 mg/kg, VZD 10/20 mg/kg, day 23): significantly increased PPD in the lesioned striata
striatal c-Fos mRNA ([7]; lesioned striata, LD 6 mg/kg, VZD 10 or 20 mg/kg, day 23): potentiated c-Fos in lesioned striata
striatal PPT mRNA ([7]; rat, in vivo): did not increase striatal PPT
5-HIAA [8, 14]: 2778 pg/mg wet tissue weight
5-HT [8, 14]: 5457 pg/mg wet tissue weight
5-HT Turnover [8, 14]: 0.57
DA [8, 14]: 112 pg/mg wet tissue weight
DA Turnover [8, 14]: 10.3
DOPAC [8, 14]: 1114 pg/mg wet tissue weight
DRN DA, DOPAC and DA Turnover ([8]; LD 6 mg/kg): significantly increased DRN levels of DA, DOPAC and DA Turnover
FAS vs baseline [9]: significant increases in motor ability on each test day
fraction crossing the blood-brain barrier [10]: 5-10%
FAS motor performance vs baseline [11]: significant improvements on motor performance over baseline
% intact stepping [12]: reversed lesion-induced motor deficits
LID during 14 days of priming [13]: significantly greater LID
